Measured values published in ChEMBL document CHEMBL4616634, “4β-Hydroxywithanolide E from Goldenberry (Whole Fruits of Physalis peruviana L.) as a Promising Agent against Chronic Obstructive Pulmonary Disease” (J Nat Prod, 2020).
Activity calls are given as the source filed them.

Key:
Assay type in all cases: functional, organism-based
Mus musculus [1] = assay: Antiinflammatory activity in C57BL/6 mouse model of CS-induced pulmonary injury assessed as reduction in thickening of the alveolar septa in lungs at 50 mg/kg, ip for 5 days by hematoxylin and eosin staining based fluorescence microscopic analysis
Mus musculus [2] = assay: Antiinflammatory activity in C57BL/6 mouse model of CS-induced pulmonary injury assessed as reduction in hyperplasia of pneumo-cytes in lungs at 50 mg/kg, ip for 5 days by hematoxylin and eosin staining based fluorescence microscopic analysis
Mus musculus [3] = assay: Antiinflammatory activity in C57BL/6 mouse model of CS-induced pulmonary injury assessed as reduction in goblet cell hyperplasia in peribronchial in lungs at 50 mg/kg, ip for 5 days by hematoxylin and eosin staining based fluorescence microscopic analysis
Mus musculus [4] = assay: Antiinflammatory activity in C57BL/6 mouse model of CS-induced pulmonary injury assessed as reduction in goblet cell hyperplasia in perivascular areas in lungs at 50 mg/kg, ip for 5 days by hematoxylin and eosin staining based fluorescence microscopic analysis
Mus musculus [5] = assay: Antiinflammatory activity in C57BL/6 mouse model of CS-induced pulmonary injury assessed as reduction in distinct infiltration of leukocytes in lungs at 50 mg/kg, ip for 5 days by hematoxylin and eosin staining based fluorescence microscopic analysis
Mus musculus [6] = assay: Antiinflammatory activity in C57BL/6 mouse model of CS-induced pulmonary injury assessed as reduction in 8-oxo-dG in lungs at 50 mg/kg, ip for 5 days by ELISA
Mus musculus [7] = assay: Antiinflammatory activity in C57BL/6 mouse model of CS-induced pulmonary injury assessed as reduction in thickening of the alveolar septa in lungs at 1 mg/kg, ip for 5 days by hematoxylin and eosin staining based fluorescence microscopic analysis
Mus musculus [8] = assay: Antiinflammatory activity in C57BL/6 mouse model of CS-induced pulmonary injury assessed as reduction in goblet cell hyperplasia in perivascular areas in lungs at 1 mg/kg, ip for 5 days by hematoxylin and eosin staining based fluorescence microscopic analysis
Mus musculus [9] = assay: Antiinflammatory activity in C57BL/6 mouse model of CS-induced pulmonary injury assessed as reduction in hyperplasia of pneumo-cytes in lungs at 1 mg/kg, […] by hematoxylin and eosin staining based fluorescence microscopic analysis
Mus musculus [10] = assay: Antiinflammatory activity in C57BL/6 mouse model of CS-induced pulmonary injury assessed as reduction in distinct infiltration of leukocytes in lungs at 1 mg/kg, ip for 5 days by hematoxylin and eosin staining based fluorescence microscopic analysis
Mus musculus [11] = assay: Antiinflammatory activity in C57BL/6 mouse model of CS-induced pulmonary injury assessed as reduction in 8-oxo-dG in lungs at 1 mg/kg, ip for 5 days by ELISA
Mus musculus [12] = assay: Antiinflammatory activity in C57BL/6 mouse model of CS-induced pulmonary injury assessed as reduction in goblet cell hyperplasia in peribronchial in lungs at 1 mg/kg, ip for 5 days by hematoxylin and eosin staining based fluorescence microscopic analysis

Measured: Activity

CC(C)(C)c1cc(O)ccc1O
active: Mus musculus [1] | Mus musculus [2] | Mus musculus [3] | Mus musculus [4] | Mus musculus [5] | Mus musculus [6]

C[C@@H]1C[C@H]2[C@@H]3CCC4=CC(=O)C=C[C@]4(C)[C@@]3(F)[C@@H](O)C[C@]2(C)[C@@]1(O)C(=O)CO
active: Mus musculus [7] | Mus musculus [8] | Mus musculus [9] | Mus musculus [10] | Mus musculus [11] | Mus musculus [12]
